SMILES strings stand for the structures. Where a name gives a salt, the structure may show the parent alone.

This test addresses T1, human TRPC6 (Homo sapiens, UniProt Q9Y210).
T1 construct: expressed in transfected cells
T1 sequence (Q9Y210 1-931): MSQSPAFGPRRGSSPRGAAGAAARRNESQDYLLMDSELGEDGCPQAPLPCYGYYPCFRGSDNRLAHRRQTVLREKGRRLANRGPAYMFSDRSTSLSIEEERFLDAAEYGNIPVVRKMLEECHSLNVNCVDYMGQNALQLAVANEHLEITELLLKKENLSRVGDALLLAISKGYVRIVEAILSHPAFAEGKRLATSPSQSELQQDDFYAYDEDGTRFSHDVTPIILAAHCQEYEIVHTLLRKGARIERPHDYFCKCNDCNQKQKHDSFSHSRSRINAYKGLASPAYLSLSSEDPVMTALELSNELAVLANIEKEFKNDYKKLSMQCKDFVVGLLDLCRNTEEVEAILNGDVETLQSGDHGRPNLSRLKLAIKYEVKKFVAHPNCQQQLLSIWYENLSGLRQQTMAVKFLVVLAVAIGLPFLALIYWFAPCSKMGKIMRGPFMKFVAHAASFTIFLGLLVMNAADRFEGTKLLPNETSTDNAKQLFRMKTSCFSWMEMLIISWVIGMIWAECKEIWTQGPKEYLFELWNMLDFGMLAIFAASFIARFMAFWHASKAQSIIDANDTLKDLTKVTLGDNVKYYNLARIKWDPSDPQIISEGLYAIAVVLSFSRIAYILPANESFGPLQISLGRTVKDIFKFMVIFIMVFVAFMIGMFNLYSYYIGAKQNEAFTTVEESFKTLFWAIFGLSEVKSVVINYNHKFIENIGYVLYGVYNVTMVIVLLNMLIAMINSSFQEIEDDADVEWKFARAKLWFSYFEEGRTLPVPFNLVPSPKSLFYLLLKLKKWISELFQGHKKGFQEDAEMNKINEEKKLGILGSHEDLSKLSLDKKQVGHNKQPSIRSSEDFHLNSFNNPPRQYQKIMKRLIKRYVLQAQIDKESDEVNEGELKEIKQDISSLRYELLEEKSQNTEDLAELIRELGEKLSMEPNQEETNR
Briefly: TRPC6 calcium flux assay (FLIPR, OAG-stimulated calcium influx). It counts as cell-based. Particulars: HEK293 cells stably transfected with human TRPC6, read-out: hTRPC6 Potency. In short, it runs like this: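 IC50 derived by plotting background-corrected peak fluorescence (180 s window, normalized to OAG-triggered signal vs buffer) against dose. Stable human TRPC6 HEK293 line was dye-loaded, exposed to compound 25 min, then challenged with 50 uM final OAG in 2 mM Ca2+ HEPES buffer pH 7.2, 0.5% DMSO.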
(In general: Calcium flux is commonly read through the fluorescence of an indicator in the cells.)
Regarding `N#Cc1ccc2c(c1)nc(N1CC[C@@H](F)[C@H](N)C1)n2Cc1ncc(F)cn1` [Example 197, 2-((3R,4R)-3-amino-4-fluoropiperidin-1-yl)-1-((5-fluoropyrimidin-2-yl)methyl)-1H-benzo[d]imidazole-5-carbonitrile], the IC50 came out at 256 nM.

As to `CN[C@@H]1CN(c2nc3ccc(F)cc3n2CC(=O)N(C)CC(F)(F)F)CC[C@H]1F` [Example 469, 2-(6-fluoro-2-((3R,4R)-4-fluoro-3-(methylamino)piperidin-1-yl)-1H-benzo[d]imidazol-1-yl)-N-methyl-N-(2,2,2-trifluoroethyl)acetamide], the IC50 amounted to 190 nM.

With `N#Cc1ccc(Cn2c(N3CC[C@@H](F)[C@H](N)C3)nc3cc(F)c(F)cc32)c(OC(F)F)c1` [Example 342, 4-((2-((3R,4R)-3-amino-4-fluoro-1-piperidinyl)-5,6-difluoro-1H-benzimidazol-1-yl)methyl)-3-(difluoromethoxy)benzo-nitrile], the IC50 stood at 12.1 nM.

Regarding `N[C@@H]1CN(c2nc3cc(F)ccc3n2Cc2nc(C(F)(F)F)no2)CC[C@H]1F` [Example 584, (3R,4R)-4-fluoro-1-(5-fluoro-1-((3-(trifluoromethyl)-1,2,4-oxadiazol-5-yl)methyl)-1H-benzo[d]imidazol-2-yl)piperidin-3-amine], the IC50 was 546 nM.

Turning to `N#Cc1ccc(Cn2c(N3CCC4CCN[C@@H]4C3)nc3ccccc32)nc1` (stereo partly drawn) [Example 25, 6-((2-((3aS,7aS)-hexahydro-1H-pyrrolo[2,3-c]pyridin-6(2H)-yl)-1H-benzo[d]imidazol-1-yl)methyl)nicotinonitrile], the IC50 worked out at 210 nM.

For `CN[C@H]1CCCN(c2nc3ccccc3n2Cc2ccc(Cl)cn2)C1` [Example 254, (3S)-1-(1-((5-chloro-2-pyridinyl)methyl)-1H-benzimidazol-2-yl)-N-methyl-3-piperidinamine], the IC50 amounted to 73.9 nM.

Regarding `CN(CC(F)(F)F)C(=O)Cn1c(N2CC[C@@H](F)[C@H](N)C2)nc2cc(F)c(F)cc21` [Example 500, 2-(2-((3R,4R)-3-amino-4-fluoropiperidin-1-yl)-5,6-difluoro-1H-benzo[d]imidazol-1-yl)-N-methyl-N-(2,2,2-trifluoroethyl)acetamide], the IC50 was determined as 5.15 nM.

For the molecule `C[C@@H](c1ccc(C#N)cc1)n1c(N2CCC[C@H](N)C2)nc2ccccc21` [Example 314, 4-((S)-1-(2-((S)-3-aminopiperidin-1-yl)-1H-benzo[d]imidazol-1-yl)ethyl)benzonitrile hydrochloride], the IC50 was greater than 50000 nM.

As for `N#Cc1ccc(Cn2c(N3CC[C@@H](F)[C@H](N)C3)nc3cc(Cl)c(C(F)(F)F)cc32)nc1` [Example 127, 6-((2-((3R,4R)-3-amino-4-fluoro-1-piperidinyl)-5-chloro-6-(trifluoromethyl)-1H-benzimidazol-1-yl)methyl)-3-pyridinecarbonitrile], the IC50 is 0.492 nM.

As for `N#Cc1ccc(Cn2c(N3C[C@H]4NCCO[C@@H]4C3)nc3ccccc32)nc1` [Example 100, 6-((2-((4aR,7aR)-hexahydropyrrolo[3,4-b][1,4]oxazin-6(2H)-yl)-1H-benzo[d]imidazol-1-yl)methyl)nicotinonitrile], the IC50 was 60 nM.

Take `N#Cc1ccc(Cn2c(N3CCC(F)(F)[C@H](N)C3)nc3cc(C(F)(F)F)ccc32)nc1` [Example 109, 6-((2-((3R)-3-amino-4,4-difluoro-1-piperidinyl)-5-(trifluoromethyl)-1H-benzimidazol-1-yl)methyl)-3-pyridinecarbonitrile]: the IC50 worked out at 43.8 nM.

For the molecule `CS(=O)(=O)N1CCN(C(=O)Cn2c(N3CC[C@@H](F)[C@H](N)C3)nc3cc(F)c(F)cc32)CC1` [Example 649, 2-(2-((3R,4R)-3-amino-4-fluoropiperidin-1-yl)-5,6-difluoro-1H-benzo[d]imidazol-1-yl)-1-(4-(methylsulfonyl)piperazin-1-yl)ethanone], the IC50 was greater than 3750 nM.

Turning to `N[C@@H]1CCCN(c2nc3ccccc3n2Cc2ccc(C(F)(F)F)cc2)C1` [Example 375, (R)-1-(1-(4-(trifluoromethyl)benzyl)-1H-benzo[d]imidazol-2-yl)piperidin-3-amine], the IC50 was 2770 nM.

In the case of `C[C@H](c1ccc(Cl)cc1Cl)n1c(N2CC[C@@H](F)[C@H](N)C2)nc2cc(F)c(F)cc21` [Example 322, (3R,4R)-1-(1-((1R)-1-(2,4-dichlorophenyl)ethyl)-5,6-difluoro-1H-benzimidazol-2-yl)-4-fluoro-3-piperidinamine], the IC50 worked out at 1450 nM.

As for `C[C@@H](c1ccccc1Cl)n1c(N2CC[C@@H](F)[C@H](N)C2)nc2cc(F)c(F)cc21` [Example 325, (3R,4R)-1-(1-((1S)-1-(2-chlorophenyl)ethyl)-5,6-difluoro-1H-benzimidazol-2-yl)-4-fluoro-3-piperidinamine], the IC50 was 743 nM.

For the molecule `CN(C)C(=O)Cn1c(N2CC[C@@H](F)[C@H](N)C2)nc2ccc(Cl)cc21` [Example 502, 2-(2-((3R,4R)-3-amino-4-fluoropiperidin-1-yl)-6-chloro-1H-benzo[d]imidazol-1-yl)-N,N-dimethylacetamide], the IC50 was found to be 9.09 nM.

As for `N#Cc1ccc(Cn2c(N3CCC[C@H](N)C3)nc3cccnc32)cc1` [Example 419, (S)-4-((2-(3-aminopiperidin-1-yl)-3H-imidazo[4,5-b]pyridin-3-yl)methyl)benzonitrile hydrochloride], the IC50 was 128 nM.

`N[C@@H]1CN(c2nc3ccc(F)cc3n2Cc2ncc(Cl)cn2)CC[C@H]1O` (single isomer, unassigned) [Example 496]: the IC50 is 61.1 nM.

As to `CN(CC(F)(F)F)C(=O)Cn1c(N2CCC(F)(CN)C2)nc2ccc(F)cc21` (stereo not drawn) [Example 486, 2-(2-(3-(aminomethyl)-3-fluoropyrrolidin-1-yl)-6-fluoro-1H-benzo[d]imidazol-1-yl)-N-methyl-N-(2,2,2-trifluoroethyl)acetamide], the IC50 was greater than 1750 nM.

Regarding `Cc1nc(Cn2c(N3CC[C@@H](F)[C@H](N)C3)nc3cc(F)c(F)cc32)no1` [Example 572, (3R,4R)-1-(5,6-difluoro-1-((5-methyl-1,2,4-oxadiazol-3-yl)methyl)-1H-benzo[d]imidazol-2-yl)-4-fluoropiperidin-3-amine], the IC50 was 106 nM.

In the case of `CN(CC(F)(F)F)C(=O)Cn1c(N2CC[C@H](F)[C@H](N)C2)nc2ccc(F)cc21` (single isomer, unassigned) [Example 466], the IC50 was 103 nM.

`N#Cc1ccc(Cn2c(N3C[C@@H]4C[C@]4(CN)C3)nc3ccccc32)nc1` [Example 75, 6-((2-((1S,5R)-1-(aminomethyl)-3-azabicyclo[3.1.0]hexan-3-yl)-1H-benzo[d]imidazol-1-yl)methyl)nicotinonitrile hydrochloride]: the IC50 stood at 81.4 nM.

For the molecule `Cc1ccc2nc(N3CC[C@@H](F)[C@H](N)C3)n(Cc3ccc(C#N)cn3)c2c1` [Example 111, 6-((2-((3R,4R)-3-amino-4-fluoro-1-piperidinyl)-6-methyl-1H-benzimidazol-1-yl)methyl)-3-pyridinecarbonitrile], the IC50 worked out at 0.787 nM.

In the case of `COc1cc(F)cc2nc(N3CC[C@@H](F)[C@H](N)C3)n(CC(=O)N(C)CC(F)(F)F)c12` [Example 509, 2-(2-((3R,4R)-3-amino-4-fluoropiperidin-1-yl)-5-fluoro-7-methoxy-1H-benzo[d]imidazol-1-yl)-N-methyl-N-(2,2,2-trifluoroethyl)acetamide], the IC50 turned out to be 131 nM.

With `N#Cc1cc(F)cc2c1nc(N1CC[C@@H](F)[C@H](N)C1)n2Cc1ncc(Cl)cn1` [Example 31, 2-((3R,4R)-3-amino-4-fluoropiperidin-1-yl)-1-((5-chloropyrimidin-2-yl)methyl)-6-fluoro-1H-benzo[d]imidazole-4-carbonitrile], the IC50 came out at 0.476 nM.

For `CN(C(=O)Cn1c(N2CC[C@@H](F)[C@H](N)C2)nc2cc(F)c(F)cc21)C1CCS(=O)(=O)CC1` [Example 651, 2-(2-((3R,4R)-3-amino-4-fluoropiperidin-1-yl)-5,6-difluoro-1H-benzo[d]imidazol-1-yl)-N-(1,1-dioxidotetrahydro-2H-thiopyran-4-yl)-N-methylacetamide], the IC50 is greater than 3750 nM.

For `N#Cc1ccc(Cl)cc1Cn1c(N2CC[C@@H](F)[C@H](N)C2)nc2cc(F)c(F)cc21` [Example 347, 2-((2-((3R,4R)-3-amino-4-fluoro-1-piperidinyl)-5,6-difluoro-1H-benzimidazol-1-yl)methyl)-4-chlorobenzonitrile], the IC50 was found to be 1.07 nM.

(Values after US11332459B2 (TEIJIN PHARMA LIMITED, priority 2017, dated 2022).)
